The text below walks through data of BindingDB's records for patent US20240287037 (Plexium, 2024).

The target in this assay is Protein cereblon (Homo sapiens, UniProt Q96SW2). Put plainly: Bioluminescence Resonance Energy Transfer (BRET). Here is the method: 2 uL of 10 uM CRBN tracer (diluted 1:5 in Tracer Dilution Buffer) was added to each well. Plates were centrifuged at 320 g for 1 min at room temperature. […] Plates were shaken for 2 minutes on a microplate shaker to mix compounds. Plates were centrifuged at 320 g for 1 min at room temperature, and subsequently incubated for 2 hours at 37 C.After incubation, plates were allowed to cool to room temperature for 15 minutes. […] Plates were read on a CLARIOstar microplate reader (BMG LabTech), measuring at 450 nm (donor emission) and 610 nm (acceptor emission).
Protein cereblon, sequence (Q96SW2 whole entry): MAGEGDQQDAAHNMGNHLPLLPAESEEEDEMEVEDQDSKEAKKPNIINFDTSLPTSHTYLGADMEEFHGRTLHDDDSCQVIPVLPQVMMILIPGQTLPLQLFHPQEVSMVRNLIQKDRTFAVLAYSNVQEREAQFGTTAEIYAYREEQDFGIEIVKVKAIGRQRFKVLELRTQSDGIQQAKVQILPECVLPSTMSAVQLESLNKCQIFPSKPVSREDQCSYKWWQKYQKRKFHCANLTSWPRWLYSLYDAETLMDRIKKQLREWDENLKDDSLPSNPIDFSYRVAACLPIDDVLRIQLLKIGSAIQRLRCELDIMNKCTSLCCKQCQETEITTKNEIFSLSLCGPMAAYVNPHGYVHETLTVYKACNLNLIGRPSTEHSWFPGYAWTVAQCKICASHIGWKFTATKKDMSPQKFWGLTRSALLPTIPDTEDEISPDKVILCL
On the technique in general: In BRET a luciferase serves as donor, and the signal depends on an acceptor being close.

Usually EC50 stands for the concentration that produces a half-maximal response. A lower EC50 goes with higher potency in that assay. With `N#CC1(C2CN([C@H]3CCCC[C@@H]3Oc3ccc4c(c3)CN(C3CCC(=O)NC3=O)C4=O)C2)CCC1` (stereo partly specified) [US20240287037, Example 23], the half-maximal effective concentration (EC50) was found to be 0.028 µM.
